Data taken from patent US20240376085A1 (Janssen Pharmaceutica NV, priority 2021, published 2024).

Columns and labels:
IL-17A : IL-17RA binding = target: T1, IL-17A : IL-17RA binding (Homo sapiens, UniProt Q16552, K93Q); assay: IL-17A(FLAG-tagged):IL-17RA(His-tagged) binding disruption Eu-HTRF assay, Protocol 1; details: FLAG-IL-17A 2.5 nM at 2x final concentration; average if tested more than once
T1 construct: Name: IL-17A-Flag
Summary of the method: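 IC50 came from a one-site competition fit of the acceptor/donor (665/620 nm) HTRF ratio. His-tagged IL-17RA, Eu-anti-FLAG and D2-anti-His were added after a 1 h rt compound preincubation with FLAG-tagged IL-17A dimer in PBS/0.01% Triton X-100, followed by 2 h at rt before reading.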

[1] = tested on: IL-17A-induced G-CSF production in human normal keratinocyte (NHK); assay: NHK assay: IL-17A-induced G-CSF production in normal human keratinocytes; assay type: cell-based; details: Homo sapiens, Keratinocyte, 24 h, IL-17A 5 ng/mL, average if tested more than once
Summary of the method: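 Compound titrations are first mixed with recombinant human IL-17A for 1 h at room temperature. The mixture goes onto adult normal human keratinocytes (final IL-17A 5 ng/mL, 5% FBS, 0.2% DMSO) for 24 h at 37 °C. Secreted G-CSF is then measured by HTRF and IC50 fitted.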

T1 sequence (Q16552 with tags, fused parts or gaps K93Q): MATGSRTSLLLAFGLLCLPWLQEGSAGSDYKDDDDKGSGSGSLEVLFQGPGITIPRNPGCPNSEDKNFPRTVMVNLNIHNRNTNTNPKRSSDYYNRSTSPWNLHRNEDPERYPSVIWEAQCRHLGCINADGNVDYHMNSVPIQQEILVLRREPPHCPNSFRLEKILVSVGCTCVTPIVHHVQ

| Structure (SMILES) | IC50 (IL-17A : IL-17RA binding) [nM] | IC50 [1] [nM] |
| --- | --- | --- |
| C[C@@H](NC(=O)CCC(F)(F)F)c1ccc2[nH]c([C@@H](NC(=O)c3cnn(C)c3CCC(F)(F)F)C3CCC(F)(F)CC3)nc2c1 [Example 6, N—[(S)-(4,4-Difluorocyclohexyl)-[6-[(1R)-1-(4,4,4-trifluorobutanoylamino)ethyl]-1H-benzimidazol-2-yl]methyl]-1-methyl-5-(3,3,3-trifluoropropyl)pyrazole-4-carboxamide] | > 100 | > 100 |
| CCn1ncc(C(=O)N[C@H](c2nc3cc([C@@H](C)NC(=O)CCC(F)(F)F)ccc3[nH]2)C2CCC(F)(F)CC2)n1 [Example 7, N—[(S)-(4,4-Difluorocyclohexyl)-[6-[(1R)-1-(4,4,4-trifluorobutanoylamino)ethyl]-1H-benzimidazol-2-yl]methyl]-2-ethyl-triazole-4-carboxamide] | > 100 | > 100 |
| C[C@@H](NC(=O)CCC(F)(F)F)c1ccc2[nH]c([C@@H](NC(=O)c3cnn(CC4CC4)n3)C3CCC(F)(F)CC3)nc2c1 [Example 8, 2-(Cyclopropylmethyl)-N—[(S)-(4,4-difluorocyclohexyl)-[6-[(1R)-1-(4,4,4-trifluorobutanoylamino)ethyl]-1H-benzimidazol-2-yl]methyl]triazole-4-carboxamide] | > 100 | > 100 |
| C[C@@H](NC(=O)CCC(F)(F)F)c1ccc2[nH]c([C@@H](NC(=O)c3cnnn3CC3CC3)C3CCC(F)(F)CC3)nc2c1 [Example 9, 3-(Cyclopropylmethyl)-N—[(S)-(4,4-difluorocyclohexyl)-[6-[(1R)-1-(4,4,4-trifluorobutanoylamino)ethyl]-1H-benzimidazol-2-yl]methyl]triazole-4-carboxamide] | > 100 | > 100 |
| C[C@@H](NC(=O)CCC(F)(F)F)c1ccc2[nH]c([C@@H](NC(=O)c3cn(CC4CC4)nn3)C3CCC(F)(F)CC3)nc2c1 [Example 10, 1-(Cyclopropylmethyl)-N—[(S)-(4,4-difluorocyclohexyl)-[6-[(1R)-1-(4,4,4-trifluorobutanoylamino)ethyl]-1H-benzimidazol-2-yl]methyl]triazole-4-carboxamide] | > 100 | > 100 |
| CC(C)CCn1ncc(C(=O)N[C@H](c2nc3cc([C@@H](C)NC(=O)CCC(F)(F)F)ccc3[nH]2)C2CCC(F)(F)CC2)c1C(C)C [Example 11, N—[(S)-(4,4-Difluorocyclohexyl)-[6-[(1R)-1-(4,4,4-trifluorobutanoylamino)ethyl]-1H-benzimidazol-2-yl]methyl]-1-isopentyl-5-isopropyl-pyrazole-4-carboxamide] | > 100 | > 100 |
| C[C@@H](NC(=O)CCC(F)(F)F)c1ccc2[nH]c([C@@H](NC(=O)c3cnn(CCC4CC4)n3)C3CCC(F)(F)CC3)nc2c1 [Example 12, 2-(2-Cyclopropylethyl)-N—[(S)-(4,4-difluorocyclohexyl)-[6-[(1R)-1-(4,4,4-trifluorobutanoylamino)ethyl]-1H-benzimidazol-2-yl]methyl]triazole-4-carboxamide] | 50 to 100 | > 100 |
| C[C@@H](NC(=O)CCC(F)(F)F)c1ccc2[nH]c([C@@H](NC(=O)c3cnnn3CCC3CC3)C3CCC(F)(F)CC3)nc2c1 [Example 13, 3-(2-Cyclopropylethyl)-N—[(S)-(4,4-difluorocyclohexyl)-[6-[(1R)-1-(4,4,4-trifluorobutanoylamino)ethyl]-1H-benzimidazol-2-yl]methyl]triazole-4-carboxamide] | > 100 | > 100 |
| COCCn1ncc(C(=O)N[C@H](c2nc3cc([C@@H](C)NC(=O)CCC(F)(F)F)ccc3[nH]2)C2CCC(F)(F)CC2)n1 [Example 14, N—[(S)-(4,4-Difluorocyclohexyl)-[6-[(1R)-1-(4,4,4-trifluorobutanoylamino)ethyl]-1H-benzimidazol-2-yl]methyl]-2-(2-methoxyethyl)triazole-4-carboxamide] | > 100 | > 100 |
| COCCn1nncc1C(=O)N[C@H](c1nc2cc([C@@H](C)NC(=O)CCC(F)(F)F)ccc2[nH]1)C1CCC(F)(F)CC1 [Example 15, N—[(S)-(4,4-Difluorocyclohexyl)-[6-[(1R)-1-(4,4,4-trifluorobutanoylamino)ethyl]-1H-benzimidazol-2-yl]methyl]-3-(2-methoxyethyl)triazole-4-carboxamide] | > 100 | > 100 |
| COCCn1cc(C(=O)N[C@H](c2nc3cc([C@@H](C)NC(=O)CCC(F)(F)F)ccc3[nH]2)C2CCC(F)(F)CC2)nn1 [Example 16, N—[(S)-(4,4-Difluorocyclohexyl)-[6-[(1R)-1-(4,4,4-trifluorobutanoylamino)ethyl]-1H-benzimidazol-2-yl]methyl]-1-(2-methoxyethyl)triazole-4-carboxamide] | > 100 | > 100 |
| Cc1c(C(=O)N[C@H](c2nc3cc([C@@H](C)NC(=O)CCC(F)(F)F)ccc3[nH]2)C2CCC(F)(F)CC2)cnn1CCC#N [Example 17, 1-(2-Cyanoethyl)-N—[(S)-(4,4-difluorocyclohexyl)-[6-[(1R)-1-(4,4,4-trifluorobutanoylamino)ethyl]-1H-benzimidazol-2-yl]methyl]-5-methyl-pyrazole-4-carboxamide] | > 100 | > 100 |
| Cc1c(C(=O)N[C@H](c2nc3cc([C@@H](C)NC(=O)CCC(F)(F)F)ccc3[nH]2)C2CCC(F)(F)CC2)cnn1CC(F)(F)F [Example 18, N—[(S)-(4,4-Difluorocyclohexyl)-[6-[(1R)-1-(4,4,4-trifluorobutanoylamino)ethyl]-1H-benzimidazol-2-yl]methyl]-5-methyl-1-(2,2,2-trifluoroethyl)pyrazole-4-carboxamide] | > 100 | > 100 |
| C[C@@H](NC(=O)CCC(F)(F)F)c1ccc2[nH]c([C@@H](NC(=O)c3cnn(CCCC(F)(F)F)n3)C3CCC(F)(F)CC3)nc2c1 [Example 19, N—[(S)-(4,4-Difluorocyclohexyl)-[6-[(1R)-1-(4,4,4-trifluorobutanoylamino)ethyl]-1H-benzimidazol-2-yl]methyl]-2-(4,4,4-trifluorobutyl)triazole-4-carboxamide] | > 100 | 50 to 100 |
| C[C@@H](NC(=O)CCC(F)(F)F)c1ccc2[nH]c([C@@H](NC(=O)c3cnnn3CCCC(F)(F)F)C3CCC(F)(F)CC3)nc2c1 [Example 20, N—[(S)-(4,4-Difluorocyclohexyl)-[6-[(1R)-1-(4,4,4-trifluorobutanoylamino)ethyl]-1H-benzimidazol-2-yl]methyl]-3-(4,4,4-trifluorobutyl)triazole-4-carboxamide] | > 100 | 50 to 100 |
| C[C@@H](NC(=O)CCC(F)(F)F)c1ccc2[nH]c([C@@H](NC(=O)c3cn(CCCC(F)(F)F)nn3)C3CCC(F)(F)CC3)nc2c1 [Example 21, N—[(S)-(4,4-Difluorocyclohexyl)-[6-[(1R)-1-(4,4,4-trifluorobutanoylamino)ethyl]-1H-benzimidazol-2-yl]methyl]-1-(4,4,4-trifluorobutyl)triazole-4-carboxamide] | > 100 | > 100 |
| C[C@@H](NC(=O)CCC(F)(F)F)c1ccc2[nH]c([C@@H](NC(=O)c3cnn(CC(F)(F)F)n3)C3CCC(F)(F)CC3)nc2c1 [Example 22, N—[(S)-(4,4-Difluorocyclohexyl)-[6-[(1R)-1-(4,4,4-trifluorobutanoylamino)ethyl]-1H-benzimidazol-2-yl]methyl]-2-(2,2,2-trifluoroethyl)triazole-4-carboxamide] | > 100 | > 100 |
| C[C@@H](NC(=O)CCC(F)(F)F)c1ccc2[nH]c([C@@H](NC(=O)c3cnnn3CC(F)(F)F)C3CCC(F)(F)CC3)nc2c1 [Example 23, N—[(S)-(4,4-Difluorocyclohexyl)-[6-[(1R)-1-(4,4,4-trifluorobutanoylamino)ethyl]-1H-benzimidazol-2-yl]methyl]-3-(2,2,2-trifluoroethyl)triazole-4-carboxamide] | > 100 | > 100 |
| C[C@@H](NC(=O)CCC(F)(F)F)c1ccc2[nH]c([C@@H](NC(=O)c3cn(CC(F)(F)F)nn3)C3CCC(F)(F)CC3)nc2c1 [Example 24, N—[(S)-(4,4-Difluorocyclohexyl)-[6-[(1R)-1-(4,4,4-trifluorobutanoylamino)ethyl]-1H-benzimidazol-2-yl]methyl]-1-(2,2,2-trifluoroethyl)triazole-4-carboxamide] | > 100 | > 100 |
| Cc1n[nH]cc1C(=O)N[C@H](c1nc2cc([C@@H](C)NC(=O)CCC(F)(F)F)ccc2[nH]1)C1CCC(F)(F)CC1 [Example 25, N—[(S)-(4,4-Difluorocyclohexyl)-[6-[(1R)-1-(4,4,4-trifluorobutanoylamino)ethyl]-1H-benzimidazol-2-yl]methyl]-3-methyl-1H-pyrazole-4-carboxamide] | > 100 | > 100 |
| C[C@@H](NC(=O)CCC(F)(F)F)c1ccc2[nH]c([C@@H](NC(=O)c3cnn(CCOC(F)(F)F)c3)C3CCC(F)(F)CC3)nc2c1 [Example 26, N—[(S)-(4,4-Difluorocyclohexyl)-[6-[(1R)-1-(4,4,4-trifluorobutanoylamino)ethyl]-1H-benzimidazol-2-yl]methyl]-1-[2-(trifluoromethoxy)ethyl]pyrazole-4-carboxamide] | > 100 | > 100 |
| C[C@@H](NC(=O)CCC(F)(F)F)c1ccc2[nH]c([C@@H](NC(=O)c3cnn(CCOC(F)F)c3)C3CCC(F)(F)CC3)nc2c1 [Example 27, N—[(S)-(4,4-Difluorocyclohexyl)-[6-[(1R)-1-(4,4,4-trifluorobutanoylamino)ethyl]-1H-benzimidazol-2-yl]methyl]-1-[2-(difluoromethoxy)ethyl]pyrazole-4-carboxamide] | > 100 | > 100 |
